US10472315B2, “Inhibitors of methionine aminopeptidases and methods of treating disorders” (THE JOHNS HOPKINS UNIVERSITY, priority 2009, dated 2019)

Tested on: M. tuberculosis CDC1551 wild-type, control and MtMetAP1a/MtMetAP1c knock-in strains
Format: cell-based

O=C1C(Cl)=C(Cl)C(=O)c2ccccc21 [Compound 4, 2,3-dichloro-1,4-naphthoquinone]
growth of MtMetAP1a and MtMetAP1c knock-in strains: gained resistance | growth of wild-type and control M. tuberculosis strains: inhibited
